From US20140378408A1, “NUCLEOSIDE 5'-PHOSPHOROTHIOATE ANALOGUES AND USES THEREOF” (BAR-ILAN UNIVERSITY, an Israeli University, priority 2012, published 2014)

What was measured:
human NTPDase2 [1] = target: T1, human NTPDase2 (Homo sapiens, UniProt Q9Y5L3); assay: Hydrolysis by human NTPDase2; type: in vitro ADME; details: for Hydrolysis by NTPDase2: 100 μM, 1 h, activity with 100 μM ATP = 100%
T1 construct: made in house; host or cells: COS-7 cells (transfected; protein extract)
T1 sequence (Q9Y5L3 1-495): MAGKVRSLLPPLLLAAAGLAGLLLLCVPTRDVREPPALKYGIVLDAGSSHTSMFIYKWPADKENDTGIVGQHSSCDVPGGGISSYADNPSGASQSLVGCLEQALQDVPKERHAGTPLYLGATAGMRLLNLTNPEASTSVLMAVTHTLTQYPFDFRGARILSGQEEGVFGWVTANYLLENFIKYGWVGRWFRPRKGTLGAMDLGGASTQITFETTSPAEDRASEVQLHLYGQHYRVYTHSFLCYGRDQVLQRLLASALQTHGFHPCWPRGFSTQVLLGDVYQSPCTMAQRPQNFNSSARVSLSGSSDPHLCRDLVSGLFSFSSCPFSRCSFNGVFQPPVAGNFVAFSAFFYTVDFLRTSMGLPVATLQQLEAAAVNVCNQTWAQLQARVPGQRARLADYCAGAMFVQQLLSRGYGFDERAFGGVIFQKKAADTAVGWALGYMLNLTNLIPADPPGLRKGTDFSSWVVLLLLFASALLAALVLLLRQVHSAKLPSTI

human NTPDase8 = target: T2, human NTPDase8 (Homo sapiens, UniProt Q5MY95); assay: Hydrolysis by human NTPDase8; type: in vitro ADME; details: for Hydrolysis by NTPDase8: 100 μM, 1 h, activity with 100 μM ATP = 100%
T2 construct: made in house; host or cells: COS-7 cells (transfected; protein extract)
T2 sequence (Q5MY95 1-495): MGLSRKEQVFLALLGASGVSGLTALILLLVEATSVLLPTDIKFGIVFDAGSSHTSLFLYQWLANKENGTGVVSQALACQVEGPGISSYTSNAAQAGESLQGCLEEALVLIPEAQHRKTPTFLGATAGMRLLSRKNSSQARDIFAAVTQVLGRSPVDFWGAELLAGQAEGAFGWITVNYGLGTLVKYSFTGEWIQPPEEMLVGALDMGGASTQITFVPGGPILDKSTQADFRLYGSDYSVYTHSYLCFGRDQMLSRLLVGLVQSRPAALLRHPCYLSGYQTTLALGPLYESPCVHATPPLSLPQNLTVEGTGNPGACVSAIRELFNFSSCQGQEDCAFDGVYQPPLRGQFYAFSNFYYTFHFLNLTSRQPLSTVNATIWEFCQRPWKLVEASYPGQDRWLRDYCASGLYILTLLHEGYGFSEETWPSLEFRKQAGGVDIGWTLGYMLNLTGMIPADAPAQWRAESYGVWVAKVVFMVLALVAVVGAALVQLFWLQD

human NTPDase2 [2] = target: T1, human NTPDase2; assay: Inhibition of NTPDase2 activity; type: biochemical; details: for effect on human NTPDase2 activity: Table 5, ATP and analogue 100 μM, 100% activity = ATP alone; for inhibition of the hydrolysis of ATP by NTPDase2: analogue and ATP 100 μM
human NTPDase3 [3] = target: T3, human NTPDase3 (Homo sapiens, UniProt O75355); assay: Inhibition of NTPDase3 activity; details: for effect on human NTPDase3 activity: Table 5, ATP and analogue 100 μM, 100% activity = ATP alone; for inhibition of the hydrolysis of ATP by NTPDase3: analogue and ATP 100 μM
T3 sequence (O75355 1-529): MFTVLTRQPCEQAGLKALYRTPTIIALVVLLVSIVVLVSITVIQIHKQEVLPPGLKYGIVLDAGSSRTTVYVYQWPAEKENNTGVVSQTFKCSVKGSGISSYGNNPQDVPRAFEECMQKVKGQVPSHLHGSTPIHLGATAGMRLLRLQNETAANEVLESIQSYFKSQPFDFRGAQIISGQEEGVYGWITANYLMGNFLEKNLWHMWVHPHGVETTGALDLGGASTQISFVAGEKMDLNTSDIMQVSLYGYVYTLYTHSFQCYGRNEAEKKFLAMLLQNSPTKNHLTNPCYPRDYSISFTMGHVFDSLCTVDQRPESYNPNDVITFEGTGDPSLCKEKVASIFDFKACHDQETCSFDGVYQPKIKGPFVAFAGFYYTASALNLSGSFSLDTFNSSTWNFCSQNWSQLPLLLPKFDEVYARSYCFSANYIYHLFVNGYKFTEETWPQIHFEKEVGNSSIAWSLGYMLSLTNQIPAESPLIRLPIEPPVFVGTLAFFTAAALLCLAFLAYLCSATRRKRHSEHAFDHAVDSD

human NTPDase3 [4] = target: T3, human NTPDase3; assay: Hydrolysis by human NTPDase3; type: in vitro ADME; set-up: made in house; host or cells: COS-7 cells (transfected; protein extract); details: for Hydrolysis by NTPDase3: 100 μM, 1 h, activity with 100 μM ATP = 100%
human NPP1 = target: T4, human NPP1 (Homo sapiens, UniProt P22413); assay: Inhibition of NPP1 activity; type: biochemical; details: pNP-TMP 5·10^−5 M
T4 construct: made in house; host or cells: COS-7 cells (transfected; protein extract / cell lysate)
T4 sequence (P22413 1-925): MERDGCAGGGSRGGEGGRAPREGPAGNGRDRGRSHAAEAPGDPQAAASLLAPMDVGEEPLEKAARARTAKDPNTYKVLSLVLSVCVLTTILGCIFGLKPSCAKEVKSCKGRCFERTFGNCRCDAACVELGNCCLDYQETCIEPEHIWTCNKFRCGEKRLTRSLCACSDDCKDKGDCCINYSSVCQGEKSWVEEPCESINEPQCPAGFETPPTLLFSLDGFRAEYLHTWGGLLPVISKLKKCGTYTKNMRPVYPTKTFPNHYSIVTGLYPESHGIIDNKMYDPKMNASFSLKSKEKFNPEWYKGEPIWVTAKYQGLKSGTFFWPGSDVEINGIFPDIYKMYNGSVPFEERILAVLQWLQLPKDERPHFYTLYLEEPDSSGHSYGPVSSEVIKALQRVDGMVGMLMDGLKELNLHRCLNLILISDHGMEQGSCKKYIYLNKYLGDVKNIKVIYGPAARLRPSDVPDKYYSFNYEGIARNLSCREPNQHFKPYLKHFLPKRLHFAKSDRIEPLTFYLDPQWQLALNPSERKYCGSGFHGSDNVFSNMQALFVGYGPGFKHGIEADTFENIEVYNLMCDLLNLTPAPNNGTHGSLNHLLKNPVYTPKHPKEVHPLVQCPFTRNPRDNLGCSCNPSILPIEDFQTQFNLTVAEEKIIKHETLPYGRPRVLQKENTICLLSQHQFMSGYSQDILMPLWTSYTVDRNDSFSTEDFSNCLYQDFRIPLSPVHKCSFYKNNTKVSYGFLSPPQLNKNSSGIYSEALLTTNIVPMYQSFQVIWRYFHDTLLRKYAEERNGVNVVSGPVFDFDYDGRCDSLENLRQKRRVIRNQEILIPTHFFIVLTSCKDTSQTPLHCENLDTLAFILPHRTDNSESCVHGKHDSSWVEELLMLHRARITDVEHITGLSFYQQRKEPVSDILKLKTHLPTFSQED

Nc1ncnc2c1ncn2[C@@H]1O[C@H](COP(O)(=S)OP(=O)(O)C(Cl)(Cl)P(=O)(O)O)[C@@H](O)[C@H]1O (single isomer, unassigned; isomer a) [APPCCl2P-α-S (isomer A), adenosine 5′-[Pα-thio]-β,γ-(dichloromethylene)triphosphate]
Hydrolysis by NTPDase2 (human NTPDase2 [1]; listed as APPCCl2P-α-S A): 5.2 ± 0.1% | Hydrolysis by NTPDase8 (human NTPDase8; listed as APPCCl2P-α-S A): 4.3 ± 0.1% | effect on human NTPDase2 activity (human NTPDase2 [2]; listed as APPCCl2P-α-S A): 11.2 ± 0.5% | inhibition of the hydrolysis of ATP by NTPDase2 (human NTPDase2 [2]): did not interfere | effect on human NTPDase3 activity (human NTPDase3 [3]; listed as APPCCl2P-α-S A): 21.8 ± 1.0% | inhibition of the hydrolysis of ATP by NTPDase3 (human NTPDase3 [3]): did not interfere | Hydrolysis by NTPDase3 (human NTPDase3 [4]; listed as APPCCl2P-α-S A): 5.2 ± 0.2%

Nc1ncnc2c1ncn2[C@@H]1O[C@H](COP(O)(=S)OP(=O)(O)CP(=O)(O)O)[C@@H](O)[C@H]1O (single isomer, unassigned; isomer a) [APPCP-α-S (isomer A), adenosine 5′-[Pα-thio]-β,γ-methylenetriphosphate]
Hydrolysis by NTPDase2 (human NTPDase2 [1]; listed as APPCP-α-S A): 4.7% | Hydrolysis by NTPDase8 (human NTPDase8; listed as APPCP-α-S A): 4.4% | effect on human NTPDase2 activity (human NTPDase2 [2]; listed as APPCP-α-S A): 16.3 ± 0.6% | inhibition of the hydrolysis of ATP by NTPDase2 (human NTPDase2 [2]): did not interfere | IC50 (human NPP1; listed as APPCP-α-S A): 16.3 ± 0.04 µM | effect on human NTPDase3 activity (human NTPDase3 [3]; listed as APPCP-α-S A): 40.2 ± 2.0% | inhibition of the hydrolysis of ATP by NTPDase3 (human NTPDase3 [3]): did not interfere | Hydrolysis by NTPDase3 (human NTPDase3 [4]; listed as APPCP-α-S A): 4.2%

Nc1ncnc2c1ncn2[C@@H]1O[C@H](COP(O)(=S)OP(=O)(O)C(Cl)(Cl)P(=O)(O)O)[C@@H](O)[C@H]1O (single isomer, unassigned; isomer b) [APPCCl2P-α-S (isomer B), adenosine 5′-[Pα-thio]-β,γ-(dichloromethylene)triphosphate]
Hydrolysis by NTPDase2 (human NTPDase2 [1]; listed as APPCCl2P-α-S B): 5.5% | Hydrolysis by NTPDase8 (human NTPDase8; listed as APPCCl2P-α-S B): 5.3% | effect on human NTPDase2 activity (human NTPDase2 [2]; listed as APPCCl2P-α-S B): 12.7 ± 0.5% | inhibition of the hydrolysis of ATP by NTPDase2 (human NTPDase2 [2]): did not interfere | IC50 (human NPP1): 31.2 ± 0.1 µM | effect on human NTPDase3 activity (human NTPDase3 [3]; listed as APPCCl2P-α-S B): 24.0 ± 1.2% | inhibition of the hydrolysis of ATP by NTPDase3 (human NTPDase3 [3]): did not interfere | Hydrolysis by NTPDase3 (human NTPDase3 [4]; listed as APPCCl2P-α-S B): 5.4%

Nc1ncnc2c1ncn2[C@@H]1O[C@H](COP(O)(=S)OP(=O)(O)CP(=O)(O)O)[C@@H](O)[C@H]1O (single isomer, unassigned; isomer b) [APPCP-α-S (isomer B), adenosine 5′-[Pα-thio]-β,γ-methylenetriphosphate]
Hydrolysis by NTPDase2 (human NTPDase2 [1]; listed as APPCP-α-S B): 5.5 ± 0.3% | Hydrolysis by NTPDase8 (human NTPDase8; listed as APPCP-α-S B): 5.3 ± 0.2% | effect on human NTPDase2 activity (human NTPDase2 [2]; listed as APPCP-α-S B): 9.9 ± 0.4% | inhibition of the hydrolysis of ATP by NTPDase2 (human NTPDase2 [2]): did not interfere | IC50 (human NPP1; listed as APPCP-α-S B): 18.7 ± 0.03 µM | effect on human NTPDase3 activity (human NTPDase3 [3]; listed as APPCP-α-S B): 18.7 ± 0.8% | inhibition of the hydrolysis of ATP by NTPDase3 (human NTPDase3 [3]): did not interfere | Hydrolysis by NTPDase3 (human NTPDase3 [4]; listed as APPCP-α-S B): 4.8 ± 0.2%

Nc1ncnc2c1ncn2[C@@H]1O[C@H](COP(=O)(O)OP(O)(O)=S)[C@@H](O)[C@H]1O [ADP-β-S, adenosine 5′-[β-thio]diphosphate, reference compound]
Relative hydrolysis by NTPDase8 (human NTPDase8): 14 ± 0.1 % ± SD of ADP or AP2A hydrolysis | inhibition of the hydrolysis of ATP by NTPDase2 (human NTPDase2 [2]): less than 50% | inhibition of the hydrolysis of ATP by NTPDase3 (human NTPDase3 [3]): less than 50% | Relative hydrolysis by NTPDase3 (human NTPDase3 [4]): 2 ± 0.1 % ± SD of ADP or AP2A hydrolysis

Nc1ncnc2c1ncn2[C@@H]1O[C@H](COP(=O)(O)CP(=O)(O)OP(O)(O)=S)[C@@H](O)[C@H]1O [APCPP-γ-S, adenosine 5′-[Pγ-thio]-α,β-methylenetriphosphate]
Hydrolysis by NTPDase2 (human NTPDase2 [1]): 4.7 ± 0.2% | Hydrolysis by NTPDase8 (human NTPDase8): 5.2 ± 0.2% | effect on human NTPDase2 activity (human NTPDase2 [2]): 15.4 ± 0.7% | IC50 (human NPP1): 0.39 ± 0.001 µM | effect on human NTPDase3 activity (human NTPDase3 [3]): 26.8 ± 1.1% | Hydrolysis by NTPDase3 (human NTPDase3 [4]): 4.8 ± 0.2%

adenosine-5′-tetrathiobisphosphonate
Relative hydrolysis by NTPDase2 (human NTPDase2 [1]): 1 ± 0.2 % ± SD of ADP or AP2A hydrolysis | Relative hydrolysis by NTPDase8 (human NTPDase8): 7 ± 1 % ± SD of ADP or AP2A hydrolysis | inhibition of the hydrolysis of ATP by NTPDase2 (human NTPDase2 [2]): 42%

di-adenosine-5′,5″-tetrathiobisphosphonate
Relative hydrolysis by NTPDase8 (human NTPDase8): 3.0 ± 0.1 % ± SD of ADP or AP2A hydrolysis | inhibition of the hydrolysis of ATP by NTPDase2 (human NTPDase2 [2]): 5-20% | inhibition of the hydrolysis of ATP by NTPDase3 (human NTPDase3 [3]): 5-20% | Relative hydrolysis by NTPDase3 (human NTPDase3 [4]): 2.0 ± 0.1 % ± SD of ADP or AP2A hydrolysis
